Reference: article PMC6286256 (Cancer chemotherapy and pharmacology, 2018)

How the values were obtained:
advanced solid tumors = assay: Best overall response, all patients; type: in vivo, human; details: single agent and combination
PI3K/mTOR = details: cellular assays; cited from earlier work
mTOR = details: cellular assays; cited from earlier work
[1] = system: patients with advanced solid tumors; assay: Safety and tolerability; type: in vivo, human; details: single-agent SDS sachet cohort, all doses, 61 patients
[2] = human, in vivo
[3] = system: patients with advanced solid tumors; details: single-agent BEZ235, oral once daily, continuous 28-day cycles
solid tumors = details: cited from earlier work

## Cn1c(=O)n(-c2ccc(C(C)(C)C#N)cc2)c2c3cc(-c4cnc5ccccc5c4)ccc3ncc21 [BEZ235]
Advanced solid tumors; 5 patients
  Patients with PR as best overall response: 2.7%
Advanced solid tumors; 62 patients
  Patients with SD as best overall response: 33.9%
PI3K/mTOR
  concentration at which dual PI3K/mTOR blockade is observed: ≈ 500 nmol/L
mTOR
  concentration at which mTOR inhibition predominates: < 100 nmol/L
[1]
  Diarrhea, frequency: 75.4%
  Nausea, frequency: 80.3%
  Vomiting, frequency: 63.9%
[2]
  Bioavailability: low bioavailability
[3]
  MTD: 1200 mg/day

## CO[C@H]1C[C@@H]2CC[C@@H](C)[C@@](O)(O2)C(=O)C(=O)N2CCCC[C@H]2C(=O)O[C@H]([C@H](C)C[C@@H]2CC[C@@H](OCCO)[C@H](OC)C2)CC(=O)[C@H](C)/C=C(\C)[C@@H](O)[C@@H](OC)C(=O)[C@H](C)C[C@H](C)/C=C/C=C/C=C/1C [everolimus]
Solid tumors
  Incidence of stomatitis: 59–71%
